The record followed here is patent publication US20230313305A1, “METHODS AND USES OF INFLAMMATORY BOWEL DISEASE BIOMARKERS” (Washington University, priority 2017, published 2023).

The subject of assay [1] is primary intestinal epithelial cells. Kind of assay: IL-17A added to primary cultured intestinal epithelial cells (microarray, qPCR). It is filed as cell-based, mouse. The note with it: 20 ng/ml IL-17A. From the text:
Despite the important role of IL-17 in autoimmunity and inflammatory bowel disease (IBD) its function in the mucosa in disease is still unclear. In IBD, IL-17 is produced in part by mucosal pro-inflammatory Th17 cells. […] To investigate this possibility, we treated primary cultured intestinal epithelial cells with IL-17 and conducted transcriptomic analysis. […] This process was inhibited by PAI-1. […] This study identifies a new pathway in UC where dysregulated PAI-1 leads to exacerbated inflammation and disease activity by blocking an IL-17-tPA-TGF-β axis.
From colon epithelial lines n=4; Stem cells; Stem cells (2 days); DM; Colonocytes; With and without 20 ng/ml IL-17A.
We sought a marker of intestinal inflammation in IBD that is downstream of multiple inflammatory pathways. We first performed RNA microarray analysis on primary mouse intestinal epithelial cells treated these cells with IL-17 (a known important inflammatory cytokine in IBD). We cross-referenced a list of 23 molecules with enhanced mRNA production in these cells grown multiple states to lists of molecules with enhanced expression in IBD colon biopsies. We identified that the Plat/Serpine1 pathway was enriched. […]

Assay [2] deals with colon spheroids. Kind of assay: TGFβ on colon spheroids, serpine1/PAI-1 expression. As to conditions: colon spheroids (FIG. 25). It is filed as cell-based. An excerpt:
FIG. 25. TGFβ drives serpine1/PAI-1 expression in the colon spheroids (negative feedback loop)

For “IL-17: inflammatory cytokine added to primary intestinal epithelial cells”, in assay [1], the “production of tissue plasminogen activator (tPA) by epithelial cells” value is recorded as “induced”.
With TGFβ, the serpine1/PAI-1 expression result in assay [2] is given as “drives”.
